Test results: EP1506969B1, “Compounds with growth hormone releasing properties” (Helsinn Therapeutics (U.S.), Inc., priority 1998, dated 2010)
Square brackets hold non-standard residues; d marks the D form. Peptide text beside a SMILES is read from it. d2Nal = N[C@H](Cc1ccc2ccccc2c1)C(=O)O

Columns and labels:
carboxypeptidase Y and B = test: Metabolic stability in carboxypeptidase mix (ESMS, selected ion monitoring); details: stability: decrease in SIM signal after 24 h in degradation solution; carboxypeptidase Y and B in 50 mM ammoniumacetate pH 4.5, 37°C
Procedure: Compounds of formula I may be evaluated for their metabolic stability using the procedure described below:
(§1) Compounds is dissolved at a concentration of 1 mg/ml in water. 25 ml of this solution is added to 175 ml of the respective enzyme-solution (resulting in an enzyme:substrate ratio (w/w) of approximately 1:5). The solution is left at 37°C overnight. 10 ml of the various degradation solutions is analyzed against a corresponding zero-sample using flow injection electrospray mass spectrometry (ESMS) with selected ion monitoring of the molecular ion. If the signal has decreased more than 20% compared to the zero-sample, the remainder of the solution is analyzed by HPLC and mass spectrometry in order to identify the extent and site(s) of degradation precisely.
(§2) Enzymes (trypsin, chymotrypsin, elastase aminopeptidase M and carboxypeptidase Y and B) were all purchased from Boehringer Mannheim GmbH (Mannheim, Germany)
Carboxypeptidase mix: carboxypeptidase Y and B in 50 mM ammoniumacetate pH 4.5 (all concentrations 0.025 mg/ml).
(§3) Mass spectrometric analysis was performed using two different mass spectrometers. […]
(§4) Quantification of the compounds (before and after degradation) was done on the API III instrument using single ion monitoring of the molecular ion in question with flow injection of the analyte. […]

[1] = tested on: trypsin, chymotrypsin and elastase; test: Metabolic stability in pancreatic enzyme mix (ESMS, selected ion monitoring); details: stability: decrease in SIM signal after 24 h in degradation solution, chymotrypsin and elastase in 100 mM ammoniumbicarbonate pH 8.0, 37°C
Procedure: as §1, §2
Pancreatic enzyme mix: trypsin, chymotrypsin and elastase in 100 mM ammoniumbicarbonate pH 8.0 (all concentrations 0.025 mg/ml).
as §3, §4

Row | Structure (SMILES) | Carboxy-peptidase mix (carboxypeptidase Y and B) | Pan. enzyme mix [1]
1 | C[C@H](NC(=O)[C@@H](Cc1ccc2ccccc2c1)NC(=O)[C@@H](C)N)C(=O)N[C@@H](Cc1c[nH]c2ccccc12)C(=O)N[C@H](Cc1ccccc1)C(=O)N[C@@H](CCCCN)C(N)=O [GHRP-2] (H-[dA][d2Nal]AW[dF]K-NH2) | - (Unstable (more than 20% decrease in SIM signal after 24 h in degradation solution)) | - (Unstable (more than 20% decrease in SIM signal after 24 h in degradation solution))
2 | C[C@H](NC(=O)[C@@H](Cc1c[nH]c2ccccc12)NC(=O)[C@@H](N)Cc1c[nH]cn1)C(=O)N[C@@H](Cc1c[nH]c2ccccc12)C(=O)N[C@H](Cc1ccccc1)C(=O)N[C@@H](CCCCN)C(N)=O [GHRP-6] (H-H[dW]AW[dF]K-NH2) | - (Unstable (more than 20% decrease in SIM signal after 24 h in degradation solution)) | - (Unstable (more than 20% decrease in SIM signal after 24 h in degradation solution))
